Laboratory results from patent US6060451A, “Thrombin inhibitors based on the amino acid sequence of hirudin” (The National Research Council of Canada, priority 1995, dated 2000).
Counter-ions that a name gives are not always drawn. Like-named read-outs stand apart in the source and are kept apart here. Starred links: 1 amine or outer side, 2 acyl side, 3 side chain; linkers in the order of their positions; H or OH if unused. Non-standard residues stand in square brackets, D forms with d. Residues, ends and D or L forms follow the SMILES beside them. Argψ(COCH2)Gly = N=C(N)NCCC[C@H](N[*:1])C(=O)CCC(=O)[*:2]; X1 = N=C(N)NCCC[C@H](N[*:1])C(=O)CCCCC(=O)[*:2]; Cha = N[C@@H](CC1CCCCC1)C(=O)O; dCha = N[C@H](CC1CCCCC1)C(=O)O; Ava = NCCCCC(=O)O

Experiments:
thrombin [1] = molecular target: T1, thrombin (Homo sapiens, UniProt P00734); assay: Thrombin time in buffer containing fibrinogen (dTT); format: biochemical; settings: read-out: IC50 dTT (concentration required to double thrombin time)
Description: *Concentration of compound required to double thrombin time in buffer

thrombin [2] = molecular target: T1, thrombin; assay: Antithrombin activity in vitro, Ki (Table III); format: biochemical; settings: first test where two are given; means for 3-5 observations
Procedure: The reactions were initiated by addition of the substrate dissolved in 0.1 M Tris-HCl buffer, pH 7.8 to a preincubated solution of enzyme (0.4 or 0.04 nM) and variable concentrations of inhibitor dissolved in the same buffer. Initial velocities were recorded and Ki values were determined graphically by weighted linear regression of Dixon plots in the case of competitive inhibition, or by the method of Baici (Baici, 1981) for hyperbolic inhibition. Fluorogenic assays were conducted using the same conditions and instrument as above operating in the fluorescence mode in the Ratio (λex=383 nm, λem=455 nm). Fluorescence intensities were calibrated with 7-amino-4-methyl coumarin solution of known concentration. The specificity of the synthetic peptides of the present invention for human α-thrombin may also be determined by comparing their relative inhibitory activities towards both human α-thrombin and bovine α-thrombin and trypsin by comparing Ki values obtained in the amidolytic assay of thrombin activity.

human α-thrombin = human α-thrombin (Homo sapiens, UniProt P00734); assay: Fluorogenic amidolytic assay of thrombin activity, hydrolysis of Tosyl-Gly-Pro-Arg-AMC (Table I)
human plasma clotting = assay: Human plasma clotting time; format: biochemical; settings: read-out: IC50 plasma clotting time (concentration required to inhibit human plasma clotting time by 50%)
Procedure: Thus, for the determination of prothrombin time, 50 μl of reconstituted citrated normal human plasma (Sigma, St-Louis, Mo.) is mixed with 50 μl of thromboplastin solution at 37° C. in a 400 μl cuvette. […] The clotting time is recorded following recalcification with 100 μl of 25 mM CaCl2. The clotting time in the absence of inhibitor was between 19-22 sec.
The same procedure is adopted for the determination of activated partial thromboplastin time except that reconstituted plasma is activated for 3 minutes with cephalin (Sigma, St-Louis, Mo.).
**Concentration of compound required to inhibit human plasma clotting tim

Ki (human α-thrombin; read-out: Human Ki, human α-thrombin mediated hydrolysis of Tosyl-Gly-Pro-Arg-AMC, mean of three determinations ± SEM, ni = not inhibited) [nM] | Compound | IC50 (thrombin [1]) [nM] | Ki (thrombin [2]) [nM] | Ki (human α-thrombin) [nM] | IC50 (human plasma clotting) [nM]
 | CC[C@H](C)[C@H](NC(=O)[C@@H]1CCCN1C(=O)[C@H](CCC(=O)O)NC(=O)[C@H](Cc1ccccc1)NC(=O)[C@H](CC(=O)O)NC(=O)CNC(=O)[C@H](CC(=O)O)NC(=O)[C@H](CC(N)=O)NC(=O)[C@H](Cc1c[nH]cn1)NC(=O)[C@H](CO)NC(=O)[C@H](CCC(N)=O)NC(=O)CCC(=O)[C@H](CCCNC(=N)N)NC(=O)[C@@H]1CCCN1C(=O)[C@@H](CC1CCCCC1)NC(C)=O)C(=O)N1CCC[C@H]1C(=O)N[C@@H](CCC(=O)O)C(=O)N[C@@H](CCC(=O)O)C(=O)N[C@@H](Cc1ccc(O)cc1)C(=O)N[C@@H](CC1CCCCC1)C(=O)N[C@@H](CCC(N)=O)C(=O)O [P314] (Ac-[dCha]P[Argψ(COCH2)Gly]QSHNDGDFEPIPEEY[Cha]Q-OH) | 1.3 | 0.02 |  | 
 | CC[C@H](C)[C@H](NC(=O)[C@@H]1CCCN1C(=O)[C@H](CCC(=O)O)NC(=O)[C@H](Cc1ccccc1)NC(=O)CCCCNC(=O)CCCCNC(=O)CCCCC(=O)[C@H](CCCNC(=N)N)NC(=O)[C@@H]1CCCN1C(=O)[C@H](N)Cc1ccccc1)C(=O)N1CCC[C@H]1C(=O)N[C@@H](CC(C)C)C(=O)O [BCH-2767, (D-Phe)-Pro-Arg-(CH2)4 (CO)--[NH(CH2)4 CO]2 -FEPIPL-TFA salt] (H-[dF]P[X1][Ava][Ava]FEPIPL-OH) | 165 | 40 |  | 
 | CC[C@H](C)[C@H](NC(=O)[C@H](CCC(=O)O)NC(=O)[C@H](CCC(=O)O)NC(=O)[C@H](Cc1ccccc1)NC(=O)[C@H](CC(=O)O)NC(=O)CNC(=O)[C@H](CC(=O)O)NC(=O)[C@H](CC(N)=O)NC(=O)[C@H](Cc1c[nH]cn1)NC(=O)[C@H](CO)NC(=O)[C@H](CCC(N)=O)NC(=O)CCC(=O)[C@H](CCCNC(=N)N)NC(=O)[C@@H]1CCCN1C(=O)[C@@H](CC1CCCCC1)NC(C)=O)C(=O)N1CCC[C@H]1C(=O)N[C@@H](CCC(=O)O)C(=O)N[C@@H](CCC(=O)O)C(=O)N[C@@H](Cc1ccc(O)cc1)C(=O)N[C@@H](CC(C)C)C(=O)N[C@@H](CCC(N)=O)C(=O)O [P311] | 1.35 | 0.16 |  | 
41 ± 15 | [D-Phe^45, Ala^47 ]hirudin^45-65 [P73] |  |  |  | 
 | CC[C@H](C)[C@H](NC(=O)[C@H](CCC(=O)O)NC(=O)[C@H](CCC(=O)O)NC(=O)[C@H](Cc1ccccc1)NC(=O)[C@H](CC(=O)O)NC(=O)CNC(=O)[C@H](CC(=O)O)NC(=O)[C@H](CC(N)=O)NC(=O)[C@H](Cc1c[nH]cn1)NC(=O)[C@H](CO)NC(=O)[C@H](CCC(N)=O)NC(=O)CCCCC(=O)[C@H](CCCNC(=N)N)NC(=O)[C@@H]1CCCN1C(=O)[C@@H](Cc1ccccc1)NC(C)=O)C(=O)N1CCC[C@H]1C(=O)N[C@@H](CCC(=O)O)C(=O)N[C@@H](CCC(=O)O)C(=O)N[C@@H](Cc1ccc(O)cc1)C(=O)N[C@@H](CC(C)C)C(=O)N[C@@H](CCC(N)=O)C(=O)O [P103] |  |  | 0.14 ± 0.02 | 
 | CC[C@H](C)[C@H](NC(=O)[C@@H]1CCCN1C(=O)[C@H](CCC(=O)O)NC(=O)[C@H](Cc1ccccc1)NC(=O)[C@H](CC(=O)O)NC(=O)CNC(=O)[C@H](CC(=O)O)NC(=O)[C@H](CC(N)=O)NC(=O)[C@H](Cc1c[nH]cn1)NC(=O)[C@H](CO)NC(=O)[C@H](CCC(N)=O)NC(=O)CCC(=O)[C@H](CCCNC(=N)N)NC(=O)[C@@H]1CCCN1C(=O)[C@@H](Cc1ccccc1)NC(C)=O)C(=O)N1CCC[C@H]1C(=O)N[C@@H](CCC(=O)O)C(=O)N[C@@H](CCC(=O)O)C(=O)N[C@@H](Cc1ccc(O)cc1)C(=O)N[C@@H](CC1CCCCC1)C(=O)N[C@@H](CCC(N)=O)C(=O)O [BCH-2408] (Ac-[dF]P[Argψ(COCH2)Gly]QSHNDGDFEPIPEEY[Cha]Q-OH) | 1 | 0.075 |  | 
 | CC[C@H](C)[C@H](NC(=O)[C@@H]1CCCN1C(=O)[C@H](CCC(=O)O)NC(=O)[C@H](Cc1ccccc1)NC(=O)[C@H](CC(=O)O)NC(=O)CCCCNC(=O)CCCCNC(=O)CCCCC(=O)[C@H](CCCNC(=N)N)NC(=O)[C@@H]1CCCN1C(=O)[C@H](N)Cc1ccccc1)C(=O)N1CCC[C@H]1C(=O)N[C@@H](CC(C)C)C(=O)O [BCH-2763, (D-Phe)-Pro-Arg-(CH2)4 (CO)--[NH(CH2)4 CO]2 -DFEPIPL-TFA salt] (H-[dF]P[X1][Ava][Ava]DFEPIPL-OH) | 1.3 | 0.1 |  | 
 | Ac(D-Phe)-Pro-Arg-(CH2)4 (CO)-[NH--CH2 --CH=CH--CH2 --(CO)]2 -DEFPIPY-OH ({Ac-dF-Pro-Arg-(CH2)4CO-NHCH2CH:CHCH2CO-NHCH2CH:CHCH2CO}-DEFPIPY-OH; also: Arg carbonyl bonded to (CH2)4 (non-amide backbone link)) [BCH-2414] | 6.23 | 1 |  | 10.5
 | Ac(D-Phe)-thioPro-Arg-(CH2)2 (CO)-QSHNDGDFEEIPEEYLQ-OH [P290] |  | 0.9 |  | 11
 | CC[C@H](C)[C@H](NC(=O)[C@@H]1CCCN1C(=O)[C@H](CCC(=O)O)NC(=O)[C@H](Cc1ccccc1)NC(=O)[C@H](CC(=O)O)NC(=O)CCCCNC(=O)CCCCNC(=O)CCCCC(=O)[C@H](CCCNC(=N)N)NC(=O)[C@@H]1CCCN1C(=O)[C@@H](Cc1ccccc1)NC(C)=O)C(=O)N1CCC[C@H]1C(=O)N[C@@H](CC(C)C)C(=O)O [BCH-2739, Ac(D-Phe)-Pro-Arg-(CH2)4 (CO)--[NH(CH2)4 (CO)]2 -DFEPIPL-OH] (Ac-[dF]P[X1][Ava][Ava]DFEPIPL-OH) | 14.5 | 4 |  | 
 | CC[C@H](C)[C@H](NC(=O)[C@H](CCC(=O)O)NC(=O)[C@H](CCC(=O)O)NC(=O)[C@H](Cc1ccccc1)NC(=O)[C@H](CC(=O)O)NC(=O)CNC(=O)[C@H](CC(=O)O)NC(=O)[C@H](CC(N)=O)NC(=O)[C@H](Cc1c[nH]cn1)NC(=O)[C@H](CO)NC(=O)CNC(=O)CC(=O)[C@H](CCCNC(=N)N)NC(=O)[C@@H]1CCCN1C(=O)[C@@H](Cc1ccccc1)NC(C)=O)C(=O)N1CCC[C@H]1C(=O)N[C@@H](CCC(=O)O)C(=O)N[C@@H](CCC(=O)O)C(=O)N[C@@H](Cc1ccc(O)cc1)C(=O)N[C@@H](CC(C)C)C(=O)N[C@@H](CCC(N)=O)C(=O)O [P109] |  | 2.25 |  | 
 | CC[C@H](C)[C@H](NC(=O)[C@H](CCC(=O)O)NC(=O)[C@H](CCC(=O)O)NC(=O)[C@H](Cc1ccccc1)NC(=O)[C@H](CC(=O)O)NC(=O)CNC(=O)[C@H](CC(=O)O)NC(=O)[C@H](CC(N)=O)NC(=O)[C@H](Cc1c[nH]cn1)NC(=O)[C@H](CO)NC(=O)[C@H](CCC(N)=O)NC(=O)CCCC(=O)[C@H](CCCNC(=N)N)NC(=O)[C@@H]1CCCN1C(=O)[C@@H](Cc1ccccc1)NC(C)=O)C(=O)N1CCC[C@H]1C(=O)N[C@@H](CCC(=O)O)C(=O)N[C@@H](CCC(=O)O)C(=O)N[C@@H](Cc1ccc(O)cc1)C(=O)N[C@@H](CC(C)C)C(=O)N[C@@H](CCC(N)=O)C(=O)O [P102] |  |  | 0.56 | 
